A short description of this series: Stability tests of nicorandil tablets in alu/alu blister with desiccant system. The class given is physicochemical. To be noted: stored in combination with molecular sieve instead of silica gel desiccant, 6 months. The procedure: Two batches of Nicorandil tablets, 10 mg (batch 043/07) and 20 mg (batch 044/07) respectively, were prepared and packed according to the invention, in alu/alu blister together with a desiccant system.
Silica gel and molecular sieves were compared as desiccant systems and among molecular sieves, systems with different capacity of water absorption were considered.
043/07A: silica gel system
043/07B: 1 lozenge of desiccant plastic composition (Molecular Sieve 4A as provided by CSP technologies), containing molecular sieve 4 Å, a base polymer of polypropylene and an elastomer (moisture absorbed in mg: about 64)
043/07C: 5 lozenges of desiccant plastic composition (Molecular Sieve 4A as provided by CSP technologies), containing molecular sieve 4 Å, a base polymer of polypropylene and an elastomer (moisture absorbed in mg: about 320)
The blisters were placed on stability at the following conditions for 6 months:
25±2° C./60±5% relative humidity (RH)
Nicorandil is particularly sensitive to humidity. Two impurities (named rrt0.14 and rrt0.25) are generated when the product is exposed to moisture and therefore were monitored during stability.

SMILES strings stand for the structures.

Take `O=C(NCCO[N+](=O)[O-])c1cccnc1` [Nicorandil]: the stability of nicorandil result is “more stable”. Also, the stability of nicorandil entry (listed as nicorandil) is listed as “improved stability”.

For the origin of these results see patent US20110002987A1, “Nicorandil Carriers with Enhanced Stability” (RIVOPHARM SA, priority 2008, published 2011).
